Results from US9290515B2, “Cephem derivative having catechol group” (SHIONOGI & CO., LTD., priority 2011, dated 2016).

Columns and labels:
Format in all cases: cell-based
[1] = test system: E. coli ATCC BAA-196_TEM-10; test: MIC by broth microdilution (CLSI), E. coli ATCC BAA-196; conditions: Escherichia coli, ATCCBAA196; E. coli ATCC BAA-196, TEM-10, ESBL producing strain; 10000 cfu/well; cation-adjusted Mueller Hinton broth with 20 μM human apo-transferrin; read-out: minimum growth inhibition concentration (MIC)
Procedure: (§1) Measurement of a minimum growth inhibition concentration (MIC: μg/mL) was performed according to CLSI (Clinical and Laboratory Standards Institute) method, by broth microdilution method, using an inoculation microbe amount of 10000 cfu/well and cation-adjusted Mueller Hinton broth containing human-derived 20 μM apo-transferrin as a test medium.

[2] = test system: K. pneumoniae ATCC 700603_SHV18; test: MIC by broth microdilution (CLSI), K. pneumoniae ATCC 700603; conditions: Klebsiella pneumoniae, ATCC700603; K. pneumoniae ATCC 700603, SHV-18, ESBL producing strain; 10000 cfu/well; cation-adjusted Mueller Hinton broth with 20 μM human apo-transferrin; read-out: minimum growth inhibition concentration (MIC)
Procedure: as §1

P. aeruginosa SR24 = test: MIC by broth microdilution (CLSI), P. aeruginosa SR24; conditions: Pseudomonas aeruginosa; P. aeruginosa SR24, Ceftazidime-sensitive strain; 10000 cfu/well; cation-adjusted Mueller Hinton broth with 20 μM human apo-transferrin; read-out: minimum growth inhibition concentration (MIC)
Procedure: as §1

[3] = test system: P. aeruginosa SR27060(metallo); test: MIC by broth microdilution (CLSI), P. aeruginosa SR27060; conditions: Pseudomonas aeruginosa; P. aeruginosa SR27060, IMP-1, MBL producing carbapenem-resistant strain; 10000 cfu/well; cation-adjusted Mueller Hinton broth with 20 μM human apo-transferrin; read-out: minimum growth inhibition concentration (MIC)
Procedure: as §1

[4] = test system: S. maltophilia SR21970(L-1); test: MIC by broth microdilution (CLSI), S. maltophilia SR21970; conditions: Stenotrophomonas maltophilia; S. maltophilia SR21970, L-1, MBL producing carbapenem-resistant strain; 10000 cfu/well; cation-adjusted Mueller Hinton broth with 20 μM human apo-transferrin; read-out: minimum growth inhibition concentration (MIC)
Procedure: as §1

A. baumannii SR24396 = test: MIC by broth microdilution (CLSI), A. baumannii SR24396; conditions: Acinetobacter baumannii, 10000 cfu/well, cation-adjusted Mueller Hinton broth with 20 μM human apo-transferrin, read-out: minimum growth inhibition concentration (MIC)
Procedure: as §1

[5] = test system: P. aeruginosa SR27001(MDRP, IMP-1+); test: MIC by broth microdilution (CLSI), P. aeruginosa SR27001; conditions: Pseudomonas aeruginosa; P. aeruginosa SR27001, MDRP, IMP-1, MBL producing carbapenem-resistant strain; 10000 cfu/well; cation-adjusted Mueller Hinton broth with 20 μM human apo-transferrin; read-out: minimum growth inhibition concentration (MIC)
Procedure: as §1

SMILES | MIC [1] [µg/mL] | MIC [2] [µg/mL] | MIC (P. aeruginosa SR24) [µg/mL] | MIC [3] [µg/mL] | MIC [4] [µg/mL] | MIC (A. baumannii SR24396) [µg/mL] | MIC [5] [µg/mL]
C[N+]1(CC2=C(C(=O)[O-])N3C(=O)[C@@H](NC(=O)/C(=N\O[C@H](C(=O)[O-])c4ccc(O)c(O)c4)c4csc(N)n4)[C@H]3SC2)CCCC1.[Na+] [Comparative Example compound 1, reference compound] | 16 | 16 | 8 | > 32 | > 32 | 4 | > 32
Nc1nc(/C(=N/O[C@H](C(=O)[O-])c2ccc(O)c(O)c2)C(=O)N[C@@H]2C(=O)N3C(C(=O)[O-])=C(C[N+]45CCC(CC4)CC5)CS[C@H]23)cs1.[Na+] [Comparative Example compound 2, reference compound] | 32 | 16 | 8 | > 32 | > 32 | 16 | > 32
Nc1nc(/C(=N/OC(CNC(=O)c2ccc(O)c(O)c2Cl)C(=O)[O-])C(=O)N[C@@H]2C(=O)N3C(C(=O)[O-])=C(C[N+]45CCC(CC4)CC5)CS[C@H]23)cs1.[Na+] (stereo partly shown) [Compound I-9] | 0.5 | 0.125 | 0.125 | 1 | 1 | 0.063 | 2
Nc1nc(/C(=N/OC(CNC(=O)c2ccc(O)c(O)c2Cl)C(=O)[O-])C(=O)N[C@@H]2C(=O)N3C(C(=O)[O-])=C(C[n+]4cccc5c4CCC5)CS[C@H]23)cs1.[Na+] (stereo partly shown) [Compound I-13] | 1 | 0.5 | 0.125 | 2 | > 32 | 0.063 | 2
Nc1nc(/C(=N/OC[C@H](NC(=O)c2ccc(O)c(O)c2Cl)C(=O)[O-])C(=O)N[C@@H]2C(=O)N3C(C(=O)[O-])=C(C[N+]45CCC(CC4)CC5)CS[C@H]23)cs1.[Na+] [Compound I-23] | 1 | 8 | 0.125 | 0.5 | 8 | 0.25 | –
